Patent publication US20240350469A1, “TREATMENT OF LOWER RESPIRATORY TRACT INFECTION WITH TRADIPITANT” (Vanda Pharmaceuticals Inc., priority 2021, published 2024)

Test system: severe or critical COVID-19 infection
Test: Randomized, double-blind, placebo-controlled study of tradipitant in hospitalized patients with COVID-19 pneumonia (interim analysis, ITT)
Assay type: in vivo
Settings: for Ordinal Score at Day 7 = 7 (Not hospitalized), no. of patients / Ordinal Score at Day 28 = 1 (Death), % of patients / Ordinal Score at Day 28 = 1 (Death), no. of patients / Ordinal Score at Day 28 = 2 (Hospitalized, on invasive mechanical ventilation or ECMO), % of patients / Ordinal Score at Day 28 = 2 (Hospitalized, on invasive mechanical ventilation or ECMO), no. of patients / Ordinal Score at Day 28 = 3 (Hospitalized, on non-invasive ventilation or high flow oxygen devices), % of patients / Ordinal Score at Day 28 = 3 (Hospitalized, on non-invasive ventilation or high flow oxygen devices), no. of patients / Ordinal Score at Day 28 = 4 (Hospitalized, requiring supplemental oxygen), % of patients / Ordinal Score at Day 28 = 4 (Hospitalized, requiring supplemental oxygen), no. of patients / Ordinal Score at Day 28 = 7 (Not hospitalized), % of patients / Ordinal Score at Day 28 = 7 (Not hospitalized), no. of patients / No. of deaths by day 7 / No. of deaths by day 28 / Ordinal Score at Day 7 = 1 (Death), % of patients / Ordinal Score at Day 7 = 1 (Death), no. of patients / Ordinal Score at Day 7 = 2 (Hospitalized, on invasive mechanical ventilation or ECMO), % of patients / Ordinal Score at Day 7 = 2 (Hospitalized, on invasive mechanical ventilation or ECMO), no. of patients / Ordinal Score at Day 7 = 3 (Hospitalized, on non-invasive ventilation or high flow oxygen devices), % of patients / Ordinal Score at Day 7 = 3 (Hospitalized, on non-invasive ventilation or high flow oxygen devices), no. of patients / Ordinal Score at Day 7 = 4 (Hospitalized, requiring supplemental oxygen), % of patients / Ordinal Score at Day 7 = 4 (Hospitalized, requiring supplemental oxygen), no. of patients / Ordinal Score at Day 7 = 5 (Hospitalized, not requiring supplemental oxygen), % of patients / Ordinal Score at Day 7 = 5 (Hospitalized, not requiring supplemental oxygen), no. of patients / Ordinal Score at Day 7 = 7 (Not hospitalized), % of patients: ITT
[1] = ordinal score at baseline 3, tradipitant N = 13
[2] = ordinal score at baseline 4, tradipitant N = 9

O=C(c1ccccc1Cl)c1cccnc1-c1nnn(Cc2cc(C(F)(F)F)cc(C(F)(F)F)c2)c1-c1ccncc1 [Tradipitant]
Ordinal Score at Day 7 = 7 (Not hospitalized), no. of patients [1]: 1 | Ordinal Score at Day 28 = 1 (Death), % of patients [1]: (7.7) % | Ordinal Score at Day 28 = 1 (Death), no. of patients [1]: 1 | Ordinal Score at Day 28 = 2 (Hospitalized, on invasive mechanical ventilation or ECMO), % of patients [1]: (61.5) % | Ordinal Score at Day 28 = 2 (Hospitalized, on invasive mechanical ventilation or ECMO), no. of patients [1]: 8 | Ordinal Score at Day 28 = 3 (Hospitalized, on non-invasive ventilation or high flow oxygen devices), % of patients [1]: (0.0) % | Ordinal Score at Day 28 = 3 (Hospitalized, on non-invasive ventilation or high flow oxygen devices), no. of patients [1]: 0 | Ordinal Score at Day 28 = 4 (Hospitalized, requiring supplemental oxygen), % of patients [1]: (0.0) % | Ordinal Score at Day 28 = 4 (Hospitalized, requiring supplemental oxygen), no. of patients [1]: 0 | Ordinal Score at Day 28 = 7 (Not hospitalized), % of patients [1]: (30.8) % | Ordinal Score at Day 28 = 7 (Not hospitalized), no. of patients [1]: 4 | No. of deaths by day 7 [2]: 1 | No. of deaths by day 28 [2]: 1 | Ordinal Score at Day 7 = 1 (Death), % of patients [2]: (11.1) % | Ordinal Score at Day 7 = 1 (Death), no. of patients [2]: 1 | Ordinal Score at Day 7 = 2 (Hospitalized, on invasive mechanical ventilation or ECMO), % of patients [2]: (0.0) % | Ordinal Score at Day 7 = 2 (Hospitalized, on invasive mechanical ventilation or ECMO), no. of patients [2]: 0 | Ordinal Score at Day 7 = 3 (Hospitalized, on non-invasive ventilation or high flow oxygen devices), % of patients [2]: (11.1) % | Ordinal Score at Day 7 = 3 (Hospitalized, on non-invasive ventilation or high flow oxygen devices), no. of patients [2]: 1 | Ordinal Score at Day 7 = 4 (Hospitalized, requiring supplemental oxygen), % of patients [2]: (11.1) % | Ordinal Score at Day 7 = 4 (Hospitalized, requiring supplemental oxygen), no. of patients [2]: 1 | Ordinal Score at Day 7 = 5 (Hospitalized, not requiring supplemental oxygen), % of patients [2]: (0.0) % | Ordinal Score at Day 7 = 5 (Hospitalized, not requiring supplemental oxygen), no. of patients [2]: 0 | Ordinal Score at Day 7 = 7 (Not hospitalized), % of patients [2]: (66.7) % | Ordinal Score at Day 7 = 7 (Not hospitalized), no. of patients [2]: 6 | Ordinal Score at Day 28 = 1 (Death), % of patients [2]: (11.1) % | Ordinal Score at Day 28 = 1 (Death), no. of patients [2]: 1 | Ordinal Score at Day 28 = 2 (Hospitalized, on invasive mechanical ventilation or ECMO), % of patients [2]: (0.0) % | Ordinal Score at Day 28 = 2 (Hospitalized, on invasive mechanical ventilation or ECMO), no. of patients [2]: 0 | Ordinal Score at Day 28 = 3 (Hospitalized, on non-invasive ventilation or high flow oxygen devices), % of patients [2]: (11.1) % | Ordinal Score at Day 28 = 3 (Hospitalized, on non-invasive ventilation or high flow oxygen devices), no. of patients [2]: 1 | Ordinal Score at Day 28 = 4 (Hospitalized, requiring supplemental oxygen), % of patients [2]: (0.0) % | Ordinal Score at Day 28 = 4 (Hospitalized, requiring supplemental oxygen), no. of patients [2]: 0 | Ordinal Score at Day 28 = 7 (Not hospitalized), % of patients [2]: (77.8) % | Ordinal Score at Day 28 = 7 (Not hospitalized), no. of patients [2]: 7 | No. of deaths by day 7 (overall, tradipitant N = 28): 2 | No. of deaths by day 28 (overall, tradipitant N = 28): 4 | Ordinal Score at Day 7 = 1 (Death), % of patients (overall, tradipitant N = 28): (7.1) % | Ordinal Score at Day 7 = 1 (Death), no. of patients (overall, tradipitant N = 28): 2 | Ordinal Score at Day 7 = 2 (Hospitalized, on invasive mechanical ventilation or ECMO), % of patients (overall, tradipitant N = 28): (32.1) % | Ordinal Score at Day 7 = 2 (Hospitalized, on invasive mechanical ventilation or ECMO), no. of patients (overall, tradipitant N = 28): 9 | Ordinal Score at Day 7 = 3 (Hospitalized, on non-invasive ventilation or high flow oxygen devices), % of patients (overall, tradipitant N = 28): (14.3) % | Ordinal Score at Day 7 = 3 (Hospitalized, on non-invasive ventilation or high flow oxygen devices), no. of patients (overall, tradipitant N = 28): 4 | Ordinal Score at Day 7 = 4 (Hospitalized, requiring supplemental oxygen), % of patients (overall, tradipitant N = 28): (7.1) % | Ordinal Score at Day 7 = 4 (Hospitalized, requiring supplemental oxygen), no. of patients (overall, tradipitant N = 28): 2 | Ordinal Score at Day 7 = 5 (Hospitalized, not requiring supplemental oxygen), % of patients (overall, tradipitant N = 28): (7.1) % | Ordinal Score at Day 7 = 5 (Hospitalized, not requiring supplemental oxygen), no. of patients (overall, tradipitant N = 28): 2 | Ordinal Score at Day 7 = 7 (Not hospitalized), % of patients (overall, tradipitant N = 28): (32.1) % | Ordinal Score at Day 7 = 7 (Not hospitalized), no. of patients (overall, tradipitant N = 28): 9 | Ordinal Score at Day 28 = 1 (Death), % of patients (overall, tradipitant N = 28): (14.3) % | Ordinal Score at Day 28 = 1 (Death), no. of patients (overall, tradipitant N = 28): 4 | Ordinal Score at Day 28 = 2 (Hospitalized, on invasive mechanical ventilation or ECMO), % of patients (overall, tradipitant N = 28): (28.6) % | Ordinal Score at Day 28 = 2 (Hospitalized, on invasive mechanical ventilation or ECMO), no. of patients (overall, tradipitant N = 28): 8 | Ordinal Score at Day 28 = 3 (Hospitalized, on non-invasive ventilation or high flow oxygen devices), % of patients (overall, tradipitant N = 28): (3.6) % | Ordinal Score at Day 28 = 3 (Hospitalized, on non-invasive ventilation or high flow oxygen devices), no. of patients (overall, tradipitant N = 28): 1 | Ordinal Score at Day 28 = 4 (Hospitalized, requiring supplemental oxygen), % of patients (overall, tradipitant N = 28): (0.0) % | Ordinal Score at Day 28 = 4 (Hospitalized, requiring supplemental oxygen), no. of patients (overall, tradipitant N = 28): 0 | Ordinal Score at Day 28 = 7 (Not hospitalized), % of patients (overall, tradipitant N = 28): (53.6) % | Ordinal Score at Day 28 = 7 (Not hospitalized), no. of patients (overall, tradipitant N = 28): 15 | Mortality rate (tradipitant arm, interim analysis, placebo arm 16.6%, not statistically significant): 14.2% | Patients showing clinical improvement (at least a 2 point improvement in the 7 point ordinal scale) (tradipitant arm, interim analysis, placebo arm 50%, not statistically significant): 57% | Time to improvement analysis (tradipitant vs placebo, FIG. 1, statistically significant at day 7): recover earlier than those receiving placebo
